The values below come from ChEMBL document CHEMBL4831514, “Novel betulin dicarboxylic acid ester derivatives as potent antiviral agents: Design, synthesis, biological evaluation, structure-activity relationship and in-silico study” (Eur J Med Chem, 2021).

Activity calls are given as the source filed them. The rule behind the calls is not given here.

The subject of series [1] is Vesicular stomatitis virus. In words: Antiviral activity against Vesicular stomatitis virus Indiana infected in A549 cells assessed as reduction in virus titer preincubated for 24 hrs followed by viral infection and measured after 72 hrs by microscopic analysis. The format is functional, organism-based.
Series [2] relates to Human adenovirus 5. In words: Antiviral activity against Human adenovirus 5 Adenoid 75 infected in A549 cells assessed as inhibition of viral adsorption at early stage of replication treated for 1 hr during viral infection followed by replacement with fresh medium and measured after 72 hrs by MTT assay. The format is functional, organism-based. In general terms: Tetrazolium assays rely on reduction of a dye to a coloured formazan, in cell work by metabolically active cells.

Series [3] in a line: Selectivity index, ratio of CC50 for cytotoxicity against human A549 cells to EC50 for antiviral activity against Enterovirus E LCR-4 infected in A549 cells assessed as reduction in virus titer treated 1 hr post viral infection followed by replacement with fresh medium with compounds and measured after 72 hrs by MTT assay. The format is toxicity, cell-based. The following applies: read-out: Selectivity Index.

Series [4] can be described thus: (§1) Cytotoxicity against human A549 cells assessed as reduction in cell viability incubated for 48 hrs by MTT assay. The format is cell-based. The conditions noted are these: A549 cells.
The test system of a further series is A549. The description is as §1. The series is classed as cell-based. The following applies: a549, 48 h.
The test system of series [5] is Enterovirus E. In words: Potency index, ratio of ribavirin EC50 to test compound EC50 for antiviral activity against Enterovirus E LCR-4 infected in A549 cells assessed as reduction in virus titer treated 1 hr post viral infection followed by replacement with fresh medium with compounds and measured after 72 hrs by MTT assay. The format is functional.
For a further series, the system named is MDCK. In words: Cytotoxicity against MDCK cells assessed as reduction in cell viability incubated for 72 hrs by MTT assay. The series is classed as cell-based, Canis lupus familiaris. The conditions noted are these: dog, mdck, 72 h.
For series [6], the system named is Enterovirus E. Description: Antiviral activity against Enterovirus E LCR-4 infected in A549 cells assessed as reduction in virus titer treated 1 hr post viral infection followed by replacement with fresh medium with compounds and measured after 72 hrs by MTT assay. The series is classed as functional, organism-based. The following applies: LCR-4, A549.
Series [7] has as its system Human alphaherpesvirus 1. In words: Antiviral activity against Human herpesvirus-1 MacIntyre infected in A549 cells assessed as inhibition of viral adsorption at early stage of replication treated for 1 hr during viral infection followed by replacement with fresh medium and measured after 48 hrs by MTT assay. The format is functional, organism-based.
The test system of series [8] is Enterovirus E. In words: Antiviral activity against Enterovirus E LCR-4 infected in A549 cells assessed as inhibition of viral adsorption at early stage of replication treated for 1 hr during viral infection followed by replacement with fresh medium and measured after 72 hrs by MTT assay. The series is classed as functional, organism-based.
The subject of series [9] is Human alphaherpesvirus 1. In words: Antiviral activity against Human herpesvirus 1 MacIntyre infected in A549 cells assessed as reduction in virus titer preincubated for 24 hrs followed by viral infection and measured after 72 hrs by microscopic analysis. The series is classed as functional, organism-based.
Series [10] deals with Human adenovirus 5. In words: Antiviral activity against Human adenovirus 5 Adenoid 75 infected in A549 cells assessed as reduction in virus titer preincubated for 24 hrs followed by viral infection and measured after 72 hrs by microscopic analysis. The format is functional, organism-based.

Turning to `C=C(C)[C@@H]1CC[C@]2(COC(=O)/C=C(\C)C(=O)N3CCOCC3)CC[C@]3(C)[C@H](CC[C@@H]4[C@@]5(C)CC[C@H](O)C(C)(C)[C@@H]5CC[C@]43C)[C@@H]12`, the result (in series [1]; with Human adenovirus 5 [2]; in the series on Human alphaherpesvirus 1 [7]; with Enterovirus E [8]; in the series on Human alphaherpesvirus 1 [9]; in the series with Human adenovirus 5 [10]) was inactive. Besides, the selectivity ratio at 72 h in series [3] is 3. Further, the CC50 at 48 h in [4] came to 114 µM. The CC20 with A549 and with MDCK was 37.82 µM in each case. Besides, in the series on Enterovirus E [5], the “Ratio EC50” value amounted to 3. Moreover, the EC50 in the series on Enterovirus E [6] worked out at 37.8 µM.

As a reminder, the CC50 is the concentration that lowers cell viability or growth by half. A word on the EC50: it is the concentration that produces a half-maximal response.
